This is an account of results in patent US20060165761A1, “Wound dressings comprising vanadate complexed with organic ligands” (priority 2002, published 2006).

In assay [1] the test system is Adult dermal fibroblasts. Description: Determination of collagen levels (ELISA) deposited by fibroblasts. It is filed as cell-based. The settings on record: for ability to stimulate collagen deposition (overall summary): absence of growth factors. The protocol:
(§1) Adult dermal fibroblasts were grown until 95% confluent, trypsinized (2 ml trypsin plate) to prepare a single suspension of fibroblasts. These cells were diluted in DMEM (+10% FBS) media and diluted to a concentration of 25000 cells/ml. […] was placed in each well of a 96 well microplate (2500 cells/well). The fibroblasts were allowed to adhere and spread by incubating for 24 hours (at 37° C., 5% CO2 in a humidified atmosphere) at which point the media was removed and replaced with serum free DMEM+/−stimulant/sample.
(§2) The following vanadate complexes were added in quadruplicate: bpV(pic) was added to a final concentration of 8.14 and 0.81 μM, bpV(bipy) (bisperoxo(bipyridine)oxovanadate) was added to a final concentration of 178 and 17.8 μM. bpV(phen) was added to a final concentration of 12 or 0.124 μM, DMHV (bis-dimethylhydroxamido vanadate, (Me2N—O)2VO(OH)) was added to a final concentration of […]. The vanadate complexes were all obtained as the solid potassium salts from Calbiochem, Catalog numbers 203705, 322130, and 203695.
Negative control samples were untreated and positive control samples were cells treated with DMEM containing 10% FBS or 0.15 ng/ml epidermal growth factor. As a further positive control, Dephostatin (a known tyrosine protein phosphatase inhibitor obtained from Calbiochem, catalog number 263200) was added to a final concentration of 23.8 μM.
Additional experiments were performed using the phosphatase inhibitors indicated above in the presence of epidermal growth factor (0.015 ng/ml) or platelet derived growth factor (6 ng/ml).
The amount of collagen produce and deposited into the extracellular environment under each experimental condition was measured using an ELISA method. Collagen type I standards (Sigma cat no 7774, lot 32K3775) and material aspirated from the fibroblasts were coated onto 96 well plates (FALCON 3072) by incubation at 37° C. for 30 min. Non-specific sites were blocked by the addition of […] of 5% solution of bovine serum albumin (BSA) for 30 min. Each well was incubated with a monoclonal antibody against collagen used at a dilution of 1/2000 ((sigma cat no. 2456, lot 081K4897) overnight at 4° C. Samples were washed five times for 5 minutes in wash buffer (PBS+0.05% (v/v) TWEEN-20) and incubated with an HRP-conjugated second antibody against mouse IgG at a dilution of 1/10000 for 2 hr. Each well was washed five times in wash buffer. Deposited collagen was detected using the Sigma FAST method used according to the manufacturers instructions. The plates were incubated at room temperature for 30 minutes and read using a MR5000 plate reader at 450 nm.
For orientation: ELISA stands for enzyme-linked immunosorbent assay.

The subject of assay [2] is Adult dermal fibroblasts. Description: XTT cell proliferation assay. It is filed as cell-based. Conditions: for amount of fibroblast proliferation (FIG. 2): 72 hrs; for ability to stimulate cell proliferation (overall summary): absence of growth factors. The protocol: as §1, §2
Negative control samples were untreated and positive control samples were cells treated with DMEM containing 10% FBS or 0.15 ng/ml epidermal growth factor. As a further positive control, Dephostatin (a known tyrosine protein phosphatase inhibitor obtained from Calbiochem, catalog number 263200) was added to a final concentration of 23.8 μM. […]
After 72 hrs the fluid was aspirated off and […] of the XTT labelling mixture (prepared by adding 0.1 ml Electron coupling reagent to every 5 mls of XTT labelling reagent) was added to each well. The plates were read at 450 nm, using a MR5000 plate reader at 2, 2.5 and 3.5 hrs.
For orientation: Tetrazolium assays rely on reduction of a dye to a coloured formazan, in cell work by metabolically active cells.

Assay [3] relates to capillary endothelial cells. The settings on record: in vitro; mimics fibroblast growth factor; cited from earlier work.
The test system of assay [4] is acute wounds in rats. Conditions: vanadate ingestion; cited from earlier work.
For assay [5], the system named is bone cell. Conditions: in vitro; cited from earlier work.

On to `CN(C)[O][V](=[O])([OH])[O]N(C)C` [DMHV, bis-dimethylhydroxamido vanadate, (Me2N—O)2VO(OH)], for which the “amount of collagen deposited by fibroblasts (FIG. 1)” value (from here on “amount of collagen deposited”) in assay [1] (6.4-64 μM, compared to positive control) is listed as “equivalent to the positive control”. In addition, in assay [1], the “ability to stimulate collagen deposition (overall summary)” value (“ability to stimulate collagen deposition” below) is “equivalent to the DMHV positive control”. The “amount of fibroblast proliferation (FIG. 2)” value (“amount … (FIG. 2)” below) in assay [2] (64 μM, compared to negative control) was “greater than the negative control”. For the same molecule, the “ability to stimulate cell proliferation (overall summary)” value (from here on “ability to stimulate cell proliferation”) in assay [2] is “equivalent to the DMHV positive control”.
Regarding `CN(N=O)c1cc(O)ccc1O` [Dephostatin, reference compound], the “amount of collagen deposited” value in assay [1] (23.8 μM, compared to positive control) is “equivalent to the positive control”. Also, the “amount … (FIG. 2)” value in assay [2] (23.8 μM, compared to negative control) is on record as “greater than the negative control”.
`[O-2].[O-][O-].[O-][O-].[V+5].c1cnc2c(c1)ccc1cccnc12` [bpV(phen), bisperoxo-(1,10-phenanthroline)-oxovanadate]: the “ability to stimulate collagen deposition” value in assay [1] (listed as bpV (phen)) is given as “exception”; in assay [1] (listed as bpV(Phen)) it was “does not enhance”. Besides, the “ability to stimulate cell proliferation” value in assay [2] (listed as bpV (Phen)) is “inhibitor of proliferation”; in assay [2] (listed as bpV (phen)) it was “exception”; in assay [2] (listed as bpV(Phen)), “does not enhance”.
For the molecule `[Na+].[Na+].[Na+].[O]=[V]([O-])([O-])[O-]` [vanadate, Sodium Orthovanadate], in assay [3], the “endothelial cells invade collagen matrices and organise into tubules” value is “stimulates endothelial cells to invade collagen matrices and organise into tubules”. In addition, in assay [4], the “gain in wound breaking strength” value is recorded as “increases” and the “organisation of collagen fibres during healing” value is given as “better organised collagen fibres”. In assay [5], the bone cell proliferation entry is “stimulates” and the bone collagen synthesis result is recorded as “stimulates”.
For the molecule “Bisperoxo (5-hydroxy pyridine-2-carboxyvanadate) [bpV(pic)]”, the “amount of collagen deposited” value in assay [1] (8.14 μm, compared to non treated negative control and FBS and EGF positive controls) was “most effective activator of collagen deposition”. Besides, the “ability to stimulate collagen deposition” value in assay [1] is reported as “more effective than even the 10% FBS positive control”. Besides, the “amount … (FIG. 2)” value in assay [2] (8.14 μM, compared to non treated negative control and FBS and EGF positive controls) was “most effective activator cell proliferation”. Besides, the “amount of fibroblast proliferation (FIG. 3)” value in assay [2] (8.14 μM, compared to non treated and vanadate at 0.1 and 0.01 mmolar) is listed as “more effective activator of cell proliferation”. In addition, the “ability to stimulate cell proliferation” value in assay [2] was “more effective than even the 10% FBS positive control”.
As for “bisperoxo(bipyridine)oxovanadate [bpV(bipy)]”, the “amount of collagen deposited” value in assay [1] (17.8 μM, compared to positive control) is recorded as “equivalent to the positive control”. The “amount … (FIG. 2)” value in assay [2] (17.8 μM, compared to negative control) is reported as “greater than the negative control”.
